Data reported in patent US20140357487A1, “PLANTS HAVING INCREASED TOLERANCE TO HERBICIDES” (BASF SE, priority 2011, published 2014).

Tests used:
Assay type in all cases: biochemical
[1] = target: T1, Hordeum HPPD variant G407C (Hordeum vulgare, UniProt O48604, A164G/G407C/R146V/R147D/R148G); assay: HPPD activity assay, Hordeum HPPD mutant G407C; details: normalized on Hordeum wild-type HPPD
T1 construct: His (N); made in house; host or cells: E. coli BL21 (DE3)
Experimental: (§1) HPPD produces homogentisic acid and CO2 from 4-hydroxyphenylpyruvate (4-HPP) and O2. The activity assay for HPPD is based on the analysis of homogentisic acid by reversed phase HPLC.
(§2) The assay mixture can contain 150 mM potassium phosphate buffer pH 7.0, 50 mM L-ascorbic acid, 1 μM FeSO4 and 7 μg of purified enzyme in a total volume of 1 ml.
(§3) Inhibitors are dissolved in DMSO (dimethylsulfoxide) to a concentration of 20 mM or 0.5 mM, respectively. From this stock solution serial five-fold dilutions are prepared in DMSO, which are used in the assay. The respective inhibitor solution accounts for 1% of the assay volume. […] After a preincubation of 30 min the reaction is started by adding 4-HPP to a final concentration of 0.1 mM. The reaction is allowed to proceed for 120 min at room temperature. The reaction is stopped by addition of 100 μl of 4.5 M phosphoric acid.
(§4) Activities are normalized by setting the uninhibited enzyme activity to 100%. IC50 values are calculated using non-linear regression.
(§5) The assay mixture can contain 150 mM potassium phosphate buffer pH 7.0, 50 mM L-ascorbic acid, 100 μM Catalase (Sigma-Aldrich), 1 μM FeSO4 and 0.2 units of purified HPPD enzyme in a total volume of 505 μl. 1 unit is defined as the amount of enzyme that is required to produce 1 nmol of HGA per minute at 20° C.
(§6) Inhibitors are dissolved in DMSO (dimethylsulfoxide) to a concentration of 0.5 mM. From this stock solution serial five-fold dilutions are prepared in DMSO, which are used in the assay. The respective inhibitor solution accounts for 1% of the assay volume. […] Activities are normalized by setting the uninhibited enzyme activity to 100%. IC50 values are calculated using non-linear regression.
(§7) Purified, mutant HPPD enzymes are obtained by the methods described above. Dose response and kinetic measurements are carried out using the described HPPD activity assay. Apparent michaelis constants (Km) and maximal reaction velocities (Vmax) are calculated by non-linear regression with the software GraphPad Prism 5 (GraphPad Software, La Jolla, USA) using a substrate inhibition model.
(§8) Field performance of the optimized HPPD enzyme, which is used as a herbicide tolerance trait may depend not only on its lack of sensitivity towards HPPD inhibiting herbicides but also on its activity. To assess the potential performance of a herbicide tolerance trait a tolerance index (TI) is calculated using the following formula: […]
(§9) Easy comparison and ranking of each trait is enabled by normalizing tolerance indexes on Arabidopsis or Hordeum wild-type HPPD.

[2] = target: T2, Hordeum HPPD variant V212L (Hordeum vulgare, UniProt O48604, A164G/R146V/R147D/R148G/V212L); assay: HPPD activity assay, Hordeum HPPD mutant V212L; details: normalized on Hordeum wild-type HPPD
T2 construct: His (N); made in house; host or cells: E. coli BL21 (DE3)
Experimental: as §1, §2, §3, §4, §5, §6, §7, §8, §9

[3] = target: T3, Hordeum HPPD variant L353M, P321R, V212I (Hordeum vulgare, UniProt O48604, L353M/P321R/V212I); assay: HPPD activity assay, Hordeum HPPD mutant L353M, P321R, V212I; details: normalized on Hordeum wild-type HPPD
T3 construct: His (N); made in house; host or cells: E. coli BL21 (DE3)
Experimental: as §1, §2, §3, §4, §5, §6, §7, §8, §9

[4] = target: T4, Hordeum HPPD variant L353M, P321R, V212I, L334E (Hordeum vulgare, UniProt O48604, L334E/L353M/P321R/V212I); assay: HPPD activity assay, Hordeum HPPD mutant L353M, P321R, V212I, L334E; details: normalized on Hordeum wild-type HPPD
T4 construct: His (N); made in house; host or cells: E. coli BL21 (DE3)
Experimental: as §1, §2, §3, §4, §5, §6, §7, §8, §9

[5] = target: T5, Arabidopsis HPPD (SEQ ID: 53) (Arabidopsis thaliana, UniProt P93836); assay: HPPD activity assay, Arabidopsis wild-type HPPD; set-up: key to Normalized tolerance index TI: tolerance index relative to Arabidopsis wild-type HPPD (= 1); details: Arabidopsis HPPD Wildtype; normalized on Arabidopsis wild-type HPPD; Table 15
T5 construct: His6 (N); made in house; host or cells: E. coli BL21 (DE3)
T5 sequence (P93836 1-445): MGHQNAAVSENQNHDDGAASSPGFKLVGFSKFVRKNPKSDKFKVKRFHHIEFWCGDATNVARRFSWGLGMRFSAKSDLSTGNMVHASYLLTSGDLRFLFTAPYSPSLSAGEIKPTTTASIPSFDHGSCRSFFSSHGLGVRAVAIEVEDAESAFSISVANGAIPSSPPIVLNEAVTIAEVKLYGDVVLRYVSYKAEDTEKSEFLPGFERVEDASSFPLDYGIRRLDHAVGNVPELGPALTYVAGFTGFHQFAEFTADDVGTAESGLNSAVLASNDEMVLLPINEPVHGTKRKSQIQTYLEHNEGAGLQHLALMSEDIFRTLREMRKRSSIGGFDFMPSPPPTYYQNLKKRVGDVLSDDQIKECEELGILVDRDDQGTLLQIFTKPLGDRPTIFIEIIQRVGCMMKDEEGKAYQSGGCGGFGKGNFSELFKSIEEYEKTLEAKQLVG
Experimental: as §1, §2, §3, §4, §5, §6
(§10) Using methods which are described in the above examples or well known in the art, purified, recombinant wildtype HPPD enzymes are characterized with respect to their kinetic properties and sensitivity towards HPPD inhibiting herbicides. Apparent michaelis constants (Km) and maximal reaction velocities (Vmax) are calculated by non-linear regression with the software GraphPad Prism 5 (GraphPad Software, La Jolla, USA) using a substrate inhibition model.
as §8, with “of the HPPD enzyme,” for “of the optimized HPPD enzyme,”, “herbicide tolerance trait, may depend” for “herbicide tolerance trait may depend”
Easy comparison and ranking of each trait is enabled by normalizing tolerance indexes on Arabidopsis wild-type HPPD.

[6] = target: T6, Hordeum HPPD variant L320N (Hordeum vulgare, UniProt O48604, A164G/L320N/R146V/R147D/R148G); assay: HPPD activity assay, Hordeum HPPD mutant L320N; details: normalized on Hordeum wild-type HPPD
T6 construct: His (N); made in house; host or cells: E. coli BL21 (DE3)
Experimental: as §1, §2, §3, §4, §5, §6, §7, §8, §9

[7] = target: T7, Hordeum HPPD variant L320Q (Hordeum vulgare, UniProt O48604, A164G/L320Q/R146V/R147D/R148G); assay: HPPD activity assay, Hordeum HPPD mutant L320Q; details: normalized on Hordeum wild-type HPPD
T7 construct: His (N); made in house; host or cells: E. coli BL21 (DE3)
Experimental: as §1, §2, §3, §4, §5, §6, §7, §8, §9

[8] = target: T8, Hordeum HPPD (SEQ ID: 2) (Hordeum vulgare, UniProt O48604, A164G/R146V/R147D/R148G); assay: HPPD activity assay, Hordeum wild-type HPPD; details: Hordeum HPPD Wildtype; normalized on Hordeum wild-type HPPD
T8 construct: His (N); made in house; host or cells: E. coli BL21 (DE3)
Experimental: as §1, §2, §3, §4, §5, §6, §10
as §8, with “of the HPPD enzyme,” for “of the optimized HPPD enzyme,”, “herbicide tolerance trait, may depend” for “herbicide tolerance trait may depend”

[9] = target: T9, Hordeum HPPD variant L320H, P321A (Hordeum vulgare, UniProt O48604, L320H/P321A); assay: HPPD activity assay, Hordeum HPPD mutant L320H, P321A; details: normalized on Hordeum wild-type HPPD
T9 construct: His (N); made in house; host or cells: E. coli BL21 (DE3)
Experimental: as §1, §2, §3, §4, §5, §6, §7, §8, §9

[10] = target: T10, Hordeum HPPD variant L353M, P321R, L320N (Hordeum vulgare, UniProt O48604, L320N/L353M/P321R); assay: HPPD activity assay, Hordeum HPPD mutant L353M, P321R, L320N; details: normalized on Hordeum wild-type HPPD
T10 construct: His (N); made in house; host or cells: E. coli BL21 (DE3)
Experimental: as §1, §2, §3, §4, §5, §6, §7, §8, §9

[11] = target: T11, Arabidopsis HPPD variant M335H, P336A, E363Q (Arabidopsis thaliana, UniProt P93836, E363Q/M335H/P336A); assay: HPPD activity assay, Arabidopsis HPPD mutant M335H, P336A, E363Q; details: normalized on Arabidopsis wild-type HPPD
T11 construct: PCR-based site directed mutagenesis of pEXP5-NT/TOPO®-AtHPPD is done; His6 (N); made in house; host or cells: E. coli BL21 (DE3)
Experimental: as §1, §2, §3, §4, §5
Inhibitors are dissolved in DMSO (dimethylsulfoxide) to a concentration of 0.5 mM. […] IC50 values are calculated using non-linear regression. […]
Purified, mutant HPPD enzymes are obtained by the methods described above. […] Apparent michaelis constants (Km) and maximal reaction velocities (Vmax) are calculated by non-linear regression with the software GraphPad Prism 5 (GraphPad Software, La Jolla, USA) using a substrate inhibition model.
as §8

[12] = target: T12, Hordeum HPPD variant L334E (Hordeum vulgare, UniProt O48604, A164G/L334E/R146V/R147D/R148G); assay: HPPD activity assay, Hordeum HPPD mutant L334E; details: normalized on Hordeum wild-type HPPD
T12 construct: His (N); made in house; host or cells: E. coli BL21 (DE3)
Experimental: as §1, §2, §3, §4, §5, §6, §7, §8, §9

T4 sequence (O48604 whole entry R146V/R147D/R148G/A164G/V212I/P321R/L334E/L353M): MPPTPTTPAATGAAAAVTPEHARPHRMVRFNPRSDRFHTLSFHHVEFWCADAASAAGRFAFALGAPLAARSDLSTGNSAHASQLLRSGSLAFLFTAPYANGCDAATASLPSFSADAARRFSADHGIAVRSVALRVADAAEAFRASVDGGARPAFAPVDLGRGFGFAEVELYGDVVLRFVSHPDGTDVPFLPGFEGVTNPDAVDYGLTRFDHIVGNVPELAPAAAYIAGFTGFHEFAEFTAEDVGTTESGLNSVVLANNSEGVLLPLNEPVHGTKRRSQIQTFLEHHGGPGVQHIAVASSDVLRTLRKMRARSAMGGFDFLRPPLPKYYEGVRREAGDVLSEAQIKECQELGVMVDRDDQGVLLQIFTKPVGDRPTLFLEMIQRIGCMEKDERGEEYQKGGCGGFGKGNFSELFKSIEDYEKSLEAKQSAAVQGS
T8 sequence (O48604 whole entry R146V/R147D/R148G/A164G): as the sequence (O48604 whole entry R146V/R147D/R148G/A164G/V212I/P321R/L334E/L353M) above, with I212V, R321P, E334L, M353L counted along it
T2 sequence (O48604 whole entry R146V/R147D/R148G/A164G/V212L): as the sequence (O48604 whole entry R146V/R147D/R148G/A164G/V212I/P321R/L334E/L353M) above, with I212L, R321P, E334L, M353L counted along it
T10 sequence (O48604 whole entry R146V/R147D/R148G/A164G/L320N/P321R/L353M): as the sequence (O48604 whole entry R146V/R147D/R148G/A164G/V212I/P321R/L334E/L353M) above, with I212V, L320N, E334L counted along it
T6 sequence (O48604 whole entry R146V/R147D/R148G/A164G/L320N): as the sequence (O48604 whole entry R146V/R147D/R148G/A164G/V212I/P321R/L334E/L353M) above, with I212V, L320N, R321P, E334L, M353L counted along it
T1 sequence (O48604 whole entry R146V/R147D/R148G/A164G/G407C): as the sequence (O48604 whole entry R146V/R147D/R148G/A164G/V212I/P321R/L334E/L353M) above, with I212V, R321P, E334L, M353L, G407C counted along it
T11 sequence (P93836 whole entry M335H/P336A/E363Q): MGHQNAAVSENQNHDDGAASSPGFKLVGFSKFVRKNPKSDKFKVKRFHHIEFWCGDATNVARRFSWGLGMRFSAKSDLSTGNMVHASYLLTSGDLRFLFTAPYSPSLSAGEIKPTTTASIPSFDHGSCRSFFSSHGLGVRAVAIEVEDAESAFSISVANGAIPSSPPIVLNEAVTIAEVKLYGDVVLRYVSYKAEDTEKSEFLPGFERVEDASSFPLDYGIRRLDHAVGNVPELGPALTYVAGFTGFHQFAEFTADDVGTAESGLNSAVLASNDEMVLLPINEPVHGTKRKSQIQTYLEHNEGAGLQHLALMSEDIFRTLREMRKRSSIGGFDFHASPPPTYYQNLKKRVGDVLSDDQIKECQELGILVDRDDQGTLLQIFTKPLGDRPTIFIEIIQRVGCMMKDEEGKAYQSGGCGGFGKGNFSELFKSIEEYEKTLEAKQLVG
T7 sequence (O48604 whole entry R146V/R147D/R148G/A164G/L320Q): as the sequence (O48604 whole entry R146V/R147D/R148G/A164G/V212I/P321R/L334E/L353M) above, with I212V, L320Q, R321P, E334L, M353L counted along it
T3 sequence (O48604 whole entry R146V/R147D/R148G/A164G/V212I/P321R/L353M): as the sequence (O48604 whole entry R146V/R147D/R148G/A164G/V212I/P321R/L334E/L353M) above, with E334L counted along it
T9 sequence (O48604 whole entry R146V/R147D/R148G/A164G/L320H/P321A): as the sequence (O48604 whole entry R146V/R147D/R148G/A164G/V212I/P321R/L334E/L353M) above, with I212V, L320H, R321A, E334L, M353L counted along it
T12 sequence (O48604 whole entry R146V/R147D/R148G/A164G/L334E): as the sequence (O48604 whole entry R146V/R147D/R148G/A164G/V212I/P321R/L334E/L353M) above, with I212V, R321P, M353L counted along it

## CC1(C)c2cccnc2C(O)=C(c2ccc(Br)cc2C(F)(F)F)S1(=O)=O [Inhibitor 5, 7-[4-bromo-2-(trifluoromethyl)phenyl]-5,5-dimethyl-6,6-dioxo-thiopyrano[4,3-b]pyridin-8-ol]
[1]
  Normalized tolerance index TI: 4.3
[2]
  Normalized tolerance index TI: 1.1
[3]
  Normalized tolerance index TI: 3.3
[4]
  Normalized tolerance index TI: 3.4
[5]
  Normalized tolerance index TI: 1
[6]
  Normalized tolerance index TI: 2.4
[7]
  Normalized tolerance index TI: 2.9
[8]
  Normalized tolerance index TI: 1
[9]
  Normalized tolerance index TI: 6.6
[10]
  Normalized tolerance index TI: 3.2
[11]
  Normalized tolerance index TI: 0.2
[12]
  Normalized tolerance index TI: 2.1
